Experiment [1] concerns the target Replicase polyprotein 1ab (Severe acute respiratory syndrome coronavirus 2) (UniProt P0DTD1). The experiment in a line: Inhibition of SARS-CoV-2 papain-like protease at 100 microg/ml relative to control. The note with it: dose 100.0 µg/ml.
For the next experiment, the system named is Fibroblast. As to the kind of experiment: Cytotoxicity against human fibroblasts cells assessed as cell growth inhibition by MTT assay. The format is cell-based.
The target in experiment [2] is Replicase polyprotein 1ab (Severe acute respiratory syndrome coronavirus 2) (UniProt P0DTD1). As to the kind of experiment: Inhibition of SARS-CoV-2 main protease at 100 microg/ml relative to control. The note with it: dose 100.0 µg/ml.
In the next experiment the test system is SARS-CoV-2. As to the kind of experiment: Antiviral activity against SARS-CoV-2 NRC-03-nhCoV strain infected in Vero E6 cells. The note with it: Severe acute respiratory syndrome coronavirus 2, NRC-03-nhCoV, Vero C1008. Format: functional, organism-based.

Data on 7 compounds can be found in ChEMBL document CHEMBL4819138, “Promising anti-SARS-CoV-2 drugs by effective dual targeting against the viral and host proteases” (Bioorg Med Chem Lett, 2021).

`COc1cc(CC(C)NCc2cc(NC(=O)c3ccccn3)cc(C(=O)N(C)C)c2)ccc1O` (configuration not stated): the inhibition in experiment [1] is over 40%.
On the same count and under the same terms, next, `COc1ccc(/C=C\C(=O)NC(=S)Nc2ccc(S(=O)(=O)NC(N)=O)cc2)cc1OC`: over 40%.
For `COc1cc(C(NC2=NC(=O)C(CC(=O)Nc3ccc(C(=O)O)cc3)S2)c2c(O)[nH]c(=O)[nH]c2=O)ccc1O` (configuration not stated), the IC50 is 1670 nM in the experiment on Fibroblast and 770 nM in the experiment with SARS-CoV-2. In addition, the inhibition in experiment [1] stood at 56.4%; in experiment [2], 31%.
`CCOC(=O)C(Cc1c[nH]c2ccccc12)NC(=O)CCC(=O)Nc1ccc(S(N)(=O)=O)cc1` (configuration not stated) gave an inhibition in experiment [1] of over 40%.
In experiment [1], `O=C(CSc1nnc2c(n1)[nH]c1ccccc12)Nc1cccc(S(=O)(=O)N2CCOCC2)c1` gave an inhibition of over 40%.
As to `O=C(CSc1nnc(NC2CC2)s1)Nc1ccccc1C(=O)Nc1ccc2c(c1)OCO2`, the inhibition is over 40% in experiment [1] and 26.4% in experiment [2].
Regarding `N=C(N/N=C/c1ccccc1O)c1nonc1NCNc1nonc1C(=N)N/N=C/c1ccccc1O`, the values for the IC50 in the experiment on Fibroblast and with SARS-CoV-2 were 410 nM and 110 nM, respectively.

The term inhibition denotes how much of the control response was suppressed. The IC50 is the concentration needed to halve the response being measured.
